This is an account of results in US20240100049A1, “REACTIVATION OF EMBRYONIC AND FETAL HEMOGLOBIN” (The Henry M. Jackson Foundation for the Advancement of …, priority 2021, published 2024).

The test system of data set [1] is human CD34+ HSPCs. In words: Real-time RT-PCR of globin mRNA in erythroid cells differentiated from human CD34+ HSPCs. The note with it: 14 days of differentiation; for α-globin mRNA levels: vs DMSO (FIG. 8B). It counts as cell-based. The protocol: Human CD34^+ HSPCs treated with PTC596 (PTC) or MI-3454 (MI) at indicated concentrations or vehicle (DMSO) were induced to undergo erythroid differentiation. Cells were harvested after 14 days of differentiation for real-time RT-PCR analysis of human fetal γ (FIG. 8A), embryonic […] (FIG. 8B), and adult β (FIG. 8C) globin mRNA levels. Relative expression levels were calculated by normalizing to GAPDH mRNA levels in the same sample and also to cells treated with DMSO.
(§1) Primary human mobilized CD34^+ HSPCs (StemCell Technologies Inc.) were initially cultured in expansion medium containing StemSpan-XF Medium (StemCell Technologies Inc.) with 1× CC 100 cytokine mix (StemCell Technologies Inc.). Cells were maintained in this expansion medium at a density of 0.1-1×10^6 cells/ml for a total of 4 days with media changes every two days. On day 4, cells were induced to undergo erythroid differentiation in three phases as known in the art. Briefly, base medium for differentiation contains Iscove's Modified Dulbecco's Medium plus 2% human peripheral blood plasma (Innovative Research), 3% human AB serum (Sigma), […] human holo-transferrin (Sigma), 3 IU/mL heparin (Sigma), […] human insulin (Sigma), and 1% Penicillin-Streptomycin (Life Technologies Inc.). In the first phase (day 0 to day 6), cells were cultured at a concentration of 10^5 cells/ml in the presence of 10 ng/mL human stem cell factor (Biolegend), 1 ng/mL human IL-3 (Biolegend), and 3 IU/mL human erythropoietin (Janssen). In the second phase (day 7 to day 11), IL-3 was omitted from the first phase culture medium. In the third phase (day 12 to day 16), both stem cell factor and IL-3 were omitted and the concentration of transferrin was adjusted to 1 mg/ml. Cell density also was adjusted to 10^6 cells/ml in the beginning of this phase. Drug treatments were started at day 2 of expansion condition and maintained thereafter. New drugs were added every 1-2 days with medium change.
The effects of PTC596 and MI-3454 on human fetal (γ) and embryonic (ε) globin expression in erythroid cells produced in culture from primary human CD34^+ hematopoietic stem and progenitor cells (HSPCs) were further tested. […] PTC596, MI-3454, or control DMSO were added to the culture from day 2 of the expansion phase and were replenished upon media change every two days.
In general terms: In qPCR the cycle at which signal appears reflects the starting amount.

The subject of data set [2] is human CD34+ HSPCs. Description: Flow cytometry of F-cells (anti-HbF) in cultures of human CD34+ HSPCs. It counts as cell-based. The note with it: erythroid differentiation 14 days.
Excerpt: Cells were fixed with glutaraldehyde, permeabilized, and stained with a PE-conjugated anti-HbF antibody. The percentages of F-cells are indicated.
as §1, with “In the third phase (day 12 to day 16), both stem cell factor and IL-3 were omitted and the concentration of transferrin was adjusted to 1 mg/ml. Cell density also was adjusted to 10^6 cells/ml in the beginning of this phase. Drug treatments were started at day 2 of expansion condition and maintained thereafter. New drugs were added every 1-2 days with medium change.” left out
Background: In flow cytometry, cells or beads pass a laser one at a time.

The test system of a further data set is γ-Globin. Description: Western blotting of γ-Globin in erythroid-differentiated human CD34+ HSPCs. It is filed as cell-based. The note with it: erythroid differentiation 14 days. The method, then:
(§2) Western blotting analysis of protein levels of […], BMI1, MEN1, and control ACTIN in CD34^+ HSPCs were treated with PTC596 (PTC) at indicated concentrations (FIG. 9A), MI-3454 (MI) at indicated concentrations (FIG. 9B), or DMSO and induced to undergo erythroid differentiation for 14 days.
as §1, with “In the second phase (day 7 to day 11), IL-3 was omitted from the first phase culture medium. In the third phase (day 12 to day 16), both stem cell factor and IL-3 were omitted and the concentration of transferrin was adjusted to 1 mg/ml. Cell density also was adjusted to 10^6 cells/ml in the beginning of this phase. Drug treatments were started at day 2 of expansion condition and maintained thereafter. New drugs were added every 1-2 days with medium change.” left out
On the technique in general: Immunoblotting shows a protein as a band on a membrane.

The test system of another data set is MEL cells. Description: Inhibitor treatment of MEL cells, real-time RT-PCR of globin mRNA. The note with it: for effect on expression levels of Hbb-b1/2 (adult globin): 48 hours treatment. It is filed as cell-based, Mouse. The method, then:
For studies testing inhibitors on MEL cells, the cells were treated with selected inhibitors or vehicle in culture medium (RPMI 1640 medium with 10% fetal bovine serum) for 48 hours and were subsequently harvested and analyzed for relative mRNA levels of Hbb-bh1 and Hbb-y using real-time RT-PCR.
Primers as used in the Examples as described herein are summarized below.

For data set [3], the system named is human CD34+ HSPCs. In words: Cytospin analysis of erythroid differentiation of human CD34+ HSPCs. The note with it: after 14 days of differentiation. It counts as cell-based. The method, then:
FIG. 7 is a cytospin analysis showing erythroblasts and reticulocytes in cultures of human CD34^+ HSPCs treated with PTC596 and MI-3454 and induced to undergo erythroid differentiation for 14 days. Cells were stained using Hema 3 staining system (Fisher Scientific). Scale bar, […].
as §1, with “In the second phase (day 7 to day 11), IL-3 was omitted from the first phase culture medium. In the third phase (day 12 to day 16), both stem cell factor and IL-3 were omitted and the concentration of transferrin was adjusted to 1 mg/ml. Cell density also was adjusted to 10^6 cells/ml in the beginning of this phase. Drug treatments were started at day 2 of expansion condition and maintained thereafter. New drugs were added every 1-2 days with medium change.” left out

In another data set the target is T1, BMI1 (Homo sapiens, UniProt P35226).
T1 construct: Western blotting analysis of protein levels of […], BMI1, MEN1, and control ACTIN in CD34^+ HSPCs; host or cells: primary human mobilized CD34+ HSPCs, erythroid differentiation for 14 days
T1 sequence (P35226 1-326): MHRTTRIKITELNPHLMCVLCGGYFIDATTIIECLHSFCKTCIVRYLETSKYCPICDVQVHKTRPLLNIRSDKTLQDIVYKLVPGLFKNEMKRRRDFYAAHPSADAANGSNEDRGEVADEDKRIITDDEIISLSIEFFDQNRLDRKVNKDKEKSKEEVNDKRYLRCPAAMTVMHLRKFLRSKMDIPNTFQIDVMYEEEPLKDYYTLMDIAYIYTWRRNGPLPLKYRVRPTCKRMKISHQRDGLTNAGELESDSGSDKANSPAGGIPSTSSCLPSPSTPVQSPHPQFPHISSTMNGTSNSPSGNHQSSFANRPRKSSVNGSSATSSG
Description: Western blotting of BMI1 in erythroid-differentiated human CD34+ HSPCs. It counts as cell-based. The settings on record: erythroid differentiation 14 days. The protocol: as §2
as §1, with “In the second phase (day 7 to day 11), IL-3 was omitted from the first phase culture medium. In the third phase (day 12 to day 16), both stem cell factor and IL-3 were omitted and the concentration of transferrin was adjusted to 1 mg/ml. Cell density also was adjusted to 10^6 cells/ml in the beginning of this phase. Drug treatments were started at day 2 of expansion condition and maintained thereafter. New drugs were added every 1-2 days with medium change.” left out

A further data set concerns the target T2, MEN1 (Homo sapiens, UniProt O00255).
T2 construct: Western blotting analysis of protein levels of […], BMI1, MEN1, and control ACTIN in CD34^+ HSPCs; host or cells: primary human mobilized CD34+ HSPCs, erythroid differentiation for 14 days
T2 sequence (O00255 1-610): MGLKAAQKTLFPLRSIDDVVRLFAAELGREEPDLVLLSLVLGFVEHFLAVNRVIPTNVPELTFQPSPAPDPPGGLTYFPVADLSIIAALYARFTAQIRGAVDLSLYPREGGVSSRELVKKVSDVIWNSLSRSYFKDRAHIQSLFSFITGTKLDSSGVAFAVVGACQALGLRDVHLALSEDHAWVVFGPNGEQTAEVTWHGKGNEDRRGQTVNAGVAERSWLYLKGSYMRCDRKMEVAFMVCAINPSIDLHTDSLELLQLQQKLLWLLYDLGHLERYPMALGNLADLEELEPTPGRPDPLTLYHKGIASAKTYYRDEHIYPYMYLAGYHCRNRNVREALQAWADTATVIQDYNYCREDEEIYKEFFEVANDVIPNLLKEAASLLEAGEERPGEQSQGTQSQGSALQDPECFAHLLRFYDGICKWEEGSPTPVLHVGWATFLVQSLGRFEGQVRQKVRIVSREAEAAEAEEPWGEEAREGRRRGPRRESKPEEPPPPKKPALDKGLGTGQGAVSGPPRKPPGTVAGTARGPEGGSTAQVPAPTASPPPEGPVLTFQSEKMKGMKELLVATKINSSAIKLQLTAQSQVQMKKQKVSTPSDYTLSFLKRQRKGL
In words: Western blotting of MEN1 (MENIN) in erythroid-differentiated human CD34+ HSPCs. It is filed as cell-based. The note with it: erythroid differentiation 14 days. The method, then:
as §2
as §1, with “In the second phase (day 7 to day 11), IL-3 was omitted from the first phase culture medium. In the third phase (day 12 to day 16), both stem cell factor and IL-3 were omitted and the concentration of transferrin was adjusted to 1 mg/ml. Cell density also was adjusted to 10^6 cells/ml in the beginning of this phase. Drug treatments were started at day 2 of expansion condition and maintained thereafter. New drugs were added every 1-2 days with medium change.” left out

The mark [4] stands for this setting: 50 nM, 48 hours, relative to DMSO, normalized to Rpl4.
Where [5] appears, read: tested concentrations, 48 hours.

In the case of `Cc1nc2ccc(F)cc2n1-c1nc(N)c(F)c(Nc2ccc(C(F)(F)F)cc2)n1` [PTC596], in the data set on human CD34+ HSPCs [1] (vs DMSO), the “percentage of γ-globin expression levels in total β-like globin (β+γ+ε) expression levels” value is listed as “significant increase” and the “γ-globin mRNA levels” value is recorded as “significantly increased”. In addition, the “α-globin mRNA levels” value in the data set on human CD34+ HSPCs [1] is listed as “significantly increased”. Besides, the “percentage of F-cells” value in the data set with human CD34+ HSPCs [2] is “higher percentage”. Moreover, in the data set on γ-Globin, the γ-Globin protein levels entry is “increased”. In addition, in the data set on MEL cells (setting [4]), the “increase of Hbb-bh1 mRNA levels” value was around 20 fold and the “increase of Hbb-y mRNA levels” value is given as around 15 fold. Also, in the data set with MEL cells, the “effect on expression levels of Hbb-b1/2 (adult globin)” value was “minimal effects”. For the same molecule, the “erythroid differentiation (erythroblasts and reticulocytes observed)” value with human CD34+ HSPCs [3] was “not blocked”. In addition, at BMI1, the BMI1 protein levels result is reported as “reduced”.
As for `CCN(C(=O)c1cc(F)ccc1Oc1cncnc1N1CC2(CCN(C[C@H]3CC[C@H](NS(=O)(=O)CC)CC3)CC2)C1)C(C)C` [SNDX-5613], the “Hbb-bh1 mRNA levels” value in the data set on MEL cells (setting [5]) is “significantly increased”.
Take `CNc1nc(NC2CCN(Cc3ccc4c(cc(C#N)n4CC45CC(NC=O)(C4)C5)c3C)CC2)c2cc(CC(F)(F)F)sc2n1` [MI-3454]: in the data set with human CD34+ HSPCs [1] (vs DMSO), the “percentage of γ-globin expression levels in total β-like globin (β+γ+ε) expression levels” value was “significant increase”, the “β-globin mRNA levels” value is “increase” and the “γ-globin mRNA levels” value is “significantly increased”. In addition, the “α-globin mRNA levels” value with human CD34+ HSPCs [1] is listed as “significantly increased”. For the same molecule, the “percentage of F-cells” value in the data set with human CD34+ HSPCs [2] was “higher percentage”. The γ-Globin protein levels result with γ-Globin is recorded as “increased”. The “effect on expression levels of Hbb-b1/2 (adult globin)” value in the data set with MEL cells is listed as “minor changes”. Moreover, in the data set on MEL cells (setting [5]), the “Hbb-bh1 mRNA levels” value is on record as “significant increases” and the “Hbb-y mRNA levels” value is on record as “significant increases”. In the data set with human CD34+ HSPCs [3], the “erythroid differentiation (erythroblasts and reticulocytes observed)” value is on record as “not blocked”. The MENIN protein levels entry on MEN1 is on record as “reduced”.
